Starred links: 1 amine or outer side, 2 acyl side, 3 side chain; linkers in the order of their positions; H or OH if unused. Positions of bridges follow the written chain, without caps; N, C: chain ends. Non-standard residues stand in square brackets, D forms with d. Residues, ends and D or L forms follow the SMILES beside them. Groups on a side chain read outwards from the residue. Chains are numbered I, II in the order given. No end group written: not given here. *: point of attachment. C18 diacid = O=C(O)CCCCCCCCCCCCCCCCC(=O)*; C16 diacid = O=C(O)CCCCCCCCCCCCCCC(=O)*; γGlu = O=C(O)[C@H](CCC(=O)[*:2])N[*:1]; AEEA = NCCOCCOCC(=O)O; Aib = CC(C)(N)C(=O)O
Experiments:
[1] = Physical stability: fibril formation in Thioflavin T (ThT) assay with agitation; format: physicochemical; conditions: for Avr lag time (h) / Avr lag time: 25° C., agitation
Method: Continuous measurement of the fluorescence emission at 486 nm can be used as a measure of fibrillation behavior of peptides and proteins. The time until onset of fibrillation or fibrillation lag time is estimated here by defining the lag time (Tlag) as the point in time where the signal relative to the pre-transition baseline has reached 10% of the post-transition baseline.
50 mM sodium phosphate buffer for dissolving some samples was prepared in ultrapure water (Milli-Q® Reference A+ System, Merck) with a resistivity of 18.2 MΩ·cm. The buffer was adjusted to pH 7.4 and filtered.
The ultrapure water (MilliQ) for dissolving some samples was adjusted to pH 7.4 with NaOH and filtered prior to sample preparation.
(§1) Peptides were either dissolved in sodium phosphate buffer (50 mM, pH 7.4, filtered) or dissolved in ultrapure (MilliQ) water (adjusted to pH 7.4 with NaOH, filtered) (see Table 3). All peptide samples were prepared to a concentration of 1, 5, 7.5 or 15 mg/ml. All samples, with the exception of reference peptides GIP(3-30), AT158, and AT482 dissolved readily and produced clear and colorless solutions with gentle mixing. Peptide samples were subsequently filtered through 0.22 μm nylon filters (Q-Max® RR syringe filter, 13 mm, Frisenette, DK) to produce particle-free solutions. All samples were added to a 96-well plate reader for the ThT assay at t=0.
For each sample, […] ThT (1 mM) was added to 1.2 mL peptide solution. From this sample mixture, an amount of 200 uL/well was pipetted into four or five wells (n=4 or 5). Blank samples (buffer+ThT) were also included. One 3 mm silica bead was added to each well containing samples and the plate was subjected to orbital rotation at 300 rpm to agitate and stress the samples. The temperature was kept at 25° C. throughout the measurement.

[2] = Solubility by visual inspection of peptide solutions; format: physicochemical
Method: as §1
Clear visual appearance may be taken as an indicator of the immediate solubility of the peptide. […] Thus, A13Aib and/or N24E substitutions appear to increase solubility.

Row | Compound | Avr lag time (h) ([1]; 1 mg/ml, TFA, Phosphate (7.4)) | Visual appearance ([2]; 1 mg/ml, TFA, Phosphate (7.4)) | Visual appearance ([2]; 7.5 mg/ml, Na, MilliQ (8)) | Visual appearance ([2]; 15 mg/ml, Na, MilliQ (8)) | Avr lag time ([1]; 1 mg/ml, TFA, Phosphate (7.4)) [h] | further results
1 | CC[C@H](C)[C@H](NC(=O)[C@H](CCCCN)NC(=O)[C@H](CC(=O)O)NC(=O)[C@H](CC(C)C)NC(=O)C(C)(C)NC(=O)[C@@H](NC(=O)[C@H](CO)NC(=O)[C@H](Cc1ccc(O)cc1)NC(=O)[C@H](CCC(=O)O)NC(=O)[C@H](CO)NC(=O)[C@@H](NC(=O)[C@H](Cc1ccccc1)NC(=O)[C@@H](NC(=O)CNC(=O)[C@@H](N)CCC(=O)O)[C@@H](C)O)[C@@H](C)CC)[C@@H](C)CC)C(=O)N[C@@H](CCCCNC(=O)COCCOCCNC(=O)COCCOCCNC(=O)CC[C@H](NC(=O)CCCCCCCCCCCCCCCCC(=O)O)C(=O)O)C(=O)N[C@@H](CCC(N)=O)C(=O)N[C@@H](CCC(N)=O)C(=O)N[C@@H](CC(=O)O)C(=O)N[C@@H](Cc1ccccc1)C(=O)N[C@H](C(=O)N[C@@H](CCC(=O)O)C(=O)N[C@@H](Cc1c[nH]c2ccccc12)C(=O)N[C@@H](CC(C)C)C(=O)N[C@@H](CC(C)C)C(=O)N[C@@H](C)C(=O)N[C@@H](CCC(N)=O)C(=O)N[C@@H](CCCCN)C(=O)N1CCC[C@H]1C(=O)N[C@@H](CO)C(=O)N[C@@H](CO)C(=O)NCC(=O)N[C@@H](C)C(=O)N1CCC[C@H]1C(=O)N1CCC[C@H]1C(=O)N1CCC[C@H]1C(=O)N[C@@H](CO)C(=O)O)C(C)C [AT712] (H-EGTFISEYSI[Aib]LDKIK([AEEA-AEEA-γGlu-C18 diacid])QQDFVEWLLAQKPSSGAPPPS-OH; N-terminus assumed) | fnd (Fnd = fibrils not detected within experiment time (96 hours) with agitation.) | Clear |  |  |  | 
2 | I: EGTFISEYSI[Aib]LEKIKQQEFVEWLLAQKPSSGAPPPS-OH / II: {C16 diacid}-GGGGS (amide I:16-II:C) [AT722] | fnd (Fnd = fibrils not detected within experiment time (96 hours) with agitation.) | Clear | Clear | Clear |  | Avr lag time (h) ([1]; 7.5 mg/ml, Na, MilliQ (8)): fnd (Fnd = fibrils not detected within experiment time (96 hours) with agitation.); Avr lag time (h) ([1]; 15 mg/ml, Na, MilliQ (8)): fnd (Fnd = fibrils not detected within experiment time (96 hours) with agitation.)
3 | CC[C@H](C)[C@H](NC(=O)[C@H](CCCCN)NC(=O)[C@H](CCC(=O)O)NC(=O)[C@H](CC(C)C)NC(=O)C(C)(C)NC(=O)[C@@H](NC(=O)[C@H](CO)NC(=O)[C@H](Cc1ccc(O)cc1)NC(=O)[C@H](CCC(=O)O)NC(=O)[C@H](CO)NC(=O)[C@@H](NC(=O)[C@H](Cc1ccccc1)NC(=O)[C@@H](NC(=O)CNC(=O)[C@@H](N)CCC(=O)O)[C@@H](C)O)[C@@H](C)CC)[C@@H](C)CC)C(=O)N[C@@H](CCCCNC(=O)COCCOCCNC(=O)COCCOCCNC(=O)CC[C@H](NC(=O)CCCCCCCCCCCCCCCCC(=O)O)C(=O)O)C(=O)N[C@@H](CCC(N)=O)C(=O)N[C@@H](CCC(N)=O)C(=O)N[C@@H](CCC(=O)O)C(=O)N[C@@H](Cc1ccccc1)C(=O)N[C@H](C(=O)N[C@@H](CCC(=O)O)C(=O)N[C@@H](Cc1c[nH]c2ccccc12)C(=O)N[C@@H](CC(C)C)C(=O)N[C@@H](CC(C)C)C(=O)N[C@@H](C)C(=O)N[C@@H](CCC(N)=O)C(=O)N[C@@H](CCCCN)C(=O)N1CCC[C@H]1C(=O)N[C@@H](CO)C(=O)N[C@@H](CO)C(=O)NCC(=O)N[C@@H](C)C(=O)N1CCC[C@H]1C(=O)N1CCC[C@H]1C(=O)N1CCC[C@H]1C(=O)N[C@@H](CO)C(N)=O)C(C)C [AT714] (H-EGTFISEYSI[Aib]LEKIK([AEEA-AEEA-γGlu-C18 diacid])QQEFVEWLLAQKPSSGAPPPS-NH2; N-terminus assumed) | fnd (Fnd = fibrils not detected within experiment time (96 hours) with agitation.) | Clear |  |  |  | 
4 | CC[C@H](C)[C@H](NC(=O)[C@H](CO)NC(=O)[C@H](Cc1ccc(O)cc1)NC(=O)[C@H](CC(=O)O)NC(=O)[C@H](CO)NC(=O)[C@@H](NC(=O)[C@H](Cc1ccccc1)NC(=O)[C@@H](NC(=O)CNC(=O)[C@@H](N)CCC(=O)O)[C@@H](C)O)[C@@H](C)CC)C(=O)N[C@@H](C)C(=O)N[C@@H](CCSC)C(=O)N[C@@H](CC(=O)O)C(=O)N[C@@H](CCCCN)C(=O)N[C@H](C(=O)N[C@@H](CCCCNC(=O)CCCCCCCCCCCCCCC(=O)O)C(=O)N[C@@H](CCC(N)=O)C(=O)N[C@@H](CCC(N)=O)C(=O)N[C@@H](CC(=O)O)C(=O)N[C@@H](Cc1ccccc1)C(=O)N[C@H](C(=O)N[C@@H](CC(N)=O)C(=O)N[C@@H](Cc1c[nH]c2ccccc12)C(=O)N[C@@H](CC(C)C)C(=O)N[C@@H](CC(C)C)C(=O)N[C@@H](C)C(=O)N[C@@H](CCC(N)=O)C(=O)N[C@@H](CCCCN)C(=O)O)C(C)C)[C@@H](C)CC [AT719] (H-EGTFISDYSIAMDKIK(C16 diacid)QQDFVNWLLAQK-OH; N-terminus assumed) |  | Clear |  |  | <8 | 
5 | CC[C@H](C)[C@H](NC(=O)[C@H](CO)NC(=O)[C@H](Cc1ccc(O)cc1)NC(=O)[C@H](CC(=O)O)NC(=O)[C@H](CO)NC(=O)[C@@H](NC(=O)[C@H](Cc1ccccc1)NC(=O)[C@@H](NC(=O)CNC(=O)[C@@H](N)CCC(=O)O)[C@@H](C)O)[C@@H](C)CC)C(=O)N[C@@H](C)C(=O)N[C@@H](CCSC)C(=O)N[C@@H](CC(=O)O)C(=O)N[C@@H](CCCCN)C(=O)N[C@H](C(=O)N[C@@H](CCCCNC(=O)CCCCCCCCCCCCCCC(=O)O)C(=O)N[C@@H](CCC(N)=O)C(=O)N[C@@H](CCC(N)=O)C(=O)N[C@@H](CC(=O)O)C(=O)N[C@@H](Cc1ccccc1)C(=O)N[C@H](C(=O)N[C@@H](CC(N)=O)C(=O)N[C@@H](Cc1c[nH]c2ccccc12)C(=O)N[C@@H](CC(C)C)C(=O)N[C@@H](CC(C)C)C(=O)N[C@@H](C)C(=O)N[C@@H](CCC(N)=O)C(=O)N[C@@H](CCCCN)C(=O)N1CCC[C@H]1C(=O)N[C@@H](CO)C(=O)N[C@@H](CO)C(=O)NCC(=O)N[C@@H](C)C(=O)N1CCC[C@H]1C(=O)N1CCC[C@H]1C(=O)N1CCC[C@H]1C(=O)N[C@@H](CO)C(=O)O)C(C)C)[C@@H](C)CC [AT364, GIP(3-30) [H18K] C16diacid+Cex(31-39), reference compound] (H-EGTFISDYSIAMDKIK(C16 diacid)QQDFVNWLLAQKPSSGAPPPS-OH; N-terminus assumed) |  | Clear | Clear | Clear | <18 | Avr lag time ([1]; 5 mg/ml, Na, MilliQ): 20 to 50 h; Avr lag time ([1]; 5 mg/ml, TFA, MilliQ (8)): <18 h; Avr lag time ([1]; 5 mg/ml, TFA, Phosphate): <18 h; Fibril formation (FIG. 1) ([1]; in phosphate buffer, about 94 h, orbital rotation): forms fibrils; Visual appearance ([2]; 1 mg/ml, CI, Phosphate (7.4)): Clear; Visual appearance ([2]; 1 mg/ml, Na, MilliQ): Clear; Visual appearance ([2]; 5 mg/ml, Na, MilliQ): Clear; Visual appearance ([2]; 5 mg/ml, TFA, MilliQ (8)): Clear; Visual appearance ([2]; 5 mg/ml, TFA, Phosphate): Clear
6 | CC[C@H](C)[C@H](NC(=O)[C@H](CO)NC(=O)[C@H](Cc1ccc(O)cc1)NC(=O)[C@H](CC(=O)O)NC(=O)[C@H](CO)NC(=O)[C@@H](NC(=O)[C@H](Cc1ccccc1)NC(=O)[C@@H](NC(=O)CNC(=O)[C@@H](N)CCC(=O)O)[C@@H](C)O)[C@@H](C)CC)C(=O)N[C@@H](C)C(=O)N[C@@H](CCSC)C(=O)N[C@@H](CC(=O)O)C(=O)N[C@@H](CCCCN)C(=O)N[C@@H](CCCCNC(=O)CCCCCCCCCCCCCCC(=O)O)C(=O)N[C@@H](Cc1c[nH]cn1)C(=O)N[C@@H](CCC(N)=O)C(=O)N[C@@H](CCC(N)=O)C(=O)N[C@@H](CC(=O)O)C(=O)N[C@@H](Cc1ccccc1)C(=O)N[C@H](C(=O)N[C@@H](CCC(=O)O)C(=O)N[C@@H](Cc1c[nH]c2ccccc12)C(=O)N[C@@H](CC(C)C)C(=O)N[C@@H](CC(C)C)C(=O)N[C@@H](C)C(=O)N[C@@H](CCC(N)=O)C(=O)N[C@@H](CCCCN)C(=O)N1CCC[C@H]1C(=O)N[C@@H](CO)C(=O)N[C@@H](CO)C(=O)NCC(=O)N[C@@H](C)C(=O)N1CCC[C@H]1C(=O)N1CCC[C@H]1C(=O)N1CCC[C@H]1C(=O)N[C@@H](CO)C(=O)O)C(C)C [AT742] (H-EGTFISDYSIAMDKK(C16 diacid)HQQDFVEWLLAQKPSSGAPPPS-OH; N-terminus assumed) | fnd (Fnd = fibrils not detected within experiment time (96 hours) with agitation.) | Clear |  |  |  | 

Source: patent US20230416330A1, “Optimized GIP Peptide Analogues” (Antag Therapeutics ApS, priority 2019, published 2023)
